According to US20250101041A1, “POSITIVE ALLOSTERIC MODULATORS OF THE MUSCARINIC ACETYLCHOLINE RECEPTOR M4” (Vanderbilt University, priority 2022, published 2025):

Biological target: T1, human mAChR M4 (Homo sapiens, UniProt P08173)
T1 construct: expressed in transfected cells; host or cells: CHO-K1 (American Type Culture Collection), stably expressing hM4 and Gqi5
T1 sequence (P08173 1-479): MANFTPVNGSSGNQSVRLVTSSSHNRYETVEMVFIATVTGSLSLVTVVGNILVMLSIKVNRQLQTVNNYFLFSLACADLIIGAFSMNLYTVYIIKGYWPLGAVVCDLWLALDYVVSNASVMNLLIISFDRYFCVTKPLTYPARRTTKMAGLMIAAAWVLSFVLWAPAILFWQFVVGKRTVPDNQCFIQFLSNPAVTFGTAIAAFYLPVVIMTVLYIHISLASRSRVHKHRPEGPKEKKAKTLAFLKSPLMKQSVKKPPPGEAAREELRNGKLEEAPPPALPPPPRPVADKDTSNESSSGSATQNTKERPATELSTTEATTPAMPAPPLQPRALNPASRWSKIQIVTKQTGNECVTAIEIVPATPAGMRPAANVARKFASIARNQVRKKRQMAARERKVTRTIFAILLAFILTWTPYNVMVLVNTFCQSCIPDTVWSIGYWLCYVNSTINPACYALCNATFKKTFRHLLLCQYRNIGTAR
Experiment: mAChR M4 cell-based functional assay: calcium mobilization (Fluo-4, FDSS), potentiation of EC20 acetylcholine response in hM4-Gqi5 CHO-K1 cells
Details: human M4; for Emax at 30 µM: CHO-K1, % ACh maximum at 30 μM; for EC50: potentiation of EC20 acetylcholine response, calcium mobilization
How it was run: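 Readout is the fluorescence-ratio rise at 1 Hz on FDSS, with PAM activity taken as concentration-dependent enhancement of the EC20 acetylcholine response, fitted four-parameter for EC50/Emax. hM4-Gqi5 CHO-K1 cells carried Fluo-4 AM dye; test compounds (11 points, 1:3) preceded EC20 acetylcholine additions at 144 s and 230 s.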

Row | SMILES | Emax at 30 µM [%] | EC50 [nM]
1 | COc1ccc(C2CN(c3cnc4c(c3)CN(c3nn5c(=O)ccnc5cc3C)CC4)CCO2)cc1 (centres unmarked) [Compound 2-95, 7-(3-(2-(4-methoxyphenyl)morpholino)-7,8-dihydro-1,6-naphthyridin-6(5H)-yl)-8-methyl-4H-pyrimido[1,2-b]pyridazin-4-one] | 64 | 814
2 | Cc1cc2nccc(=O)n2nc1N1CCc2ncc(Nc3ccncc3)cc2C1 [Compound 2-97, 8-methyl-7-(3-(pyridin-4-ylamino)-7,8-dihydro-1,6-naphthyridin-6(5H)-yl)-4H-pyrimido[1,2-b]pyridazin-4-one] | 96 | 92
3 | Cc1cc2nccc(=O)n2nc1N1CCc2ncc(N3CCOC(Cc4ccccc4)C3)cc2C1 (centres unmarked) [Compound 2-99, 7-(3-(2-benzylmorpholino)-7,8-dihydro-1,6-naphthyridin-6(5H)-yl)-8-methyl-4H-pyrimido[1,2-b]pyridazin-4-one] | 66 | 416
4 | Cc1cc2nccc(=O)n2nc1N1CCc2ncc(Nc3ccc(C(C)C)nc3)cc2C1 [Compound 2-101, 7-(3-((6-isopropylpyridin-3-yl)amino)-7,8-dihydro-1,6-naphthyridin-6(5H)-yl)-8-methyl-4H-pyrimido[1,2-b]pyridazin-4-one] | 65 | 527
5 | Cc1cnccc1Nc1cnc2c(c1)CN(c1nn3c(=O)ccnc3cc1C)CC2 [Compound 2-102, 8-methyl-7-(3-((3-methylpyridin-4-yl)amino)-7,8-dihydro-1,6-naphthyridin-6(5H)-yl)-4H-pyrimido[1,2-b]pyridazin-4-one] | 84 | 585
6 | Cc1cc2nccc(=O)n2nc1N1CCc2ncc(Nc3cccc(F)n3)cc2C1 [Compound 2-107, 7-(3-((6-fluoropyridin-2-yl)amino)-7,8-dihydro-1,6-naphthyridin-6(5H)-yl)-8-methyl-4H-pyrimido[1,2-b]pyridazin-4-one] | 79 | 437
7 | Cc1cc2nccc(=O)n2nc1N1CCc2ncc(NC(=O)C3CC3)cc2C1 [Compound 2-108, N-(6-(8-methyl-4-oxo-4H-pyrimido[1,2-b]pyridazin-7-yl)-5,6,7,8-tetrahydro-1,6-naphthyridin-3-yl)cyclopropanecarboxamide] | 56 | 1650
8 | Cc1cc2nccc(=O)n2nc1N1CCc2ncc(NC(=O)C3COC3)cc2C1 [Compound 2-109, N-(6-(8-methyl-4-oxo-4H-pyrimido[1,2-b]pyridazin-7-yl)-5,6,7,8-tetrahydro-1,6-naphthyridin-3-yl)oxetane-3-carboxamide] | 30 | –
9 | Cc1cc2nccc(=O)n2nc1N1CCc2ncc(NC(=O)C3CCOCC3)cc2C1 [Compound 2-110, N-(6-(8-methyl-4-oxo-4H-pyrimido[1,2-b]pyridazin-7-yl)-5,6,7,8-tetrahydro-1,6-naphthyridin-3-yl)tetrahydro-2H-pyran-4-carboxamide] | 47 | 2200
10 | COc1cnccc1Nc1cnc2c(c1)CN(c1nn3c(=O)ccnc3cc1C)CC2 [Compound 2-112, 7-(3-((3-methoxypyridin-4-yl)amino)-7,8-dihydro-1,6-naphthyridin-6(5H)-yl)-8-methyl-4H-pyrimido[1,2-b]pyridazin-4-one] | 64 | 2710
11 | Cc1cc2nccc(=O)n2nc1N1CCc2ncc(Nc3c(F)ccnc3C)cc2C1 [Compound 2-114, 7-(3-((4-fluoro-2-methylpyridin-3-yl)amino)-7,8-dihydro-1,6-naphthyridin-6(5H)-yl)-8-methyl-4H-pyrimido[1,2-b]pyridazin-4-one] | 82 | 165
12 | Cc1ccc(Nc2cnc3c(c2)CN(c2nn4c(=O)ccnc4cc2C)CC3)c(F)n1 [Compound 2-115, 7-(3-((2-fluoro-6-methylpyridin-3-yl)amino)-7,8-dihydro-1,6-naphthyridin-6(5H)-yl)-8-methyl-4H-pyrimido[1,2-b]pyridazin-4-one] | 93 | 329
13 | Cc1cc2nccc(=O)n2nc1N1CCc2ncc(NS(C)(=O)=O)cc2C1 [Compound 2-117, N-(6-(8-methyl-4-oxo-4H-pyrimido[1,2-b]pyridazin-7-yl)-5,6,7,8-tetrahydro-1,6-naphthyridin-3-yl)methanesulfonamide] | 83 | 2760
14 | Cc1cc2nccc(=O)n2nc1N1CCc2ncc(NS(=O)(=O)C3CC3)cc2C1 [Compound 2-118, N-(6-(8-methyl-4-oxo-4H-pyrimido[1,2-b]pyridazin-7-yl)-5,6,7,8-tetrahydro-1,6-naphthyridin-3-yl)cyclopropanesulfonamide] | 48 | 3050
15 | Cc1nc(S(=O)(=O)Nc2cnc3c(c2)CN(c2nn4c(=O)ccnc4cc2C)CC3)cs1 [Compound 2-119, 2-methyl-N-(6-(8-methyl-4-oxo-4H-pyrimido[1,2-b]pyridazin-7-yl)-5,6,7,8-tetrahydro-1,6-naphthyridin-3-yl)thiazole-4-sulfonamide] | 31 | –
16 | Cc1cc2nccc(=O)n2nc1N1CCc2ncc(NC(=O)C3CC(F)(F)C3)cc2C1 [Compound 2-120, 3,3-difluoro-N-(6-(8-methyl-4-oxo-4H-pyrimido[1,2-b]pyridazin-7-yl)-5,6,7,8-tetrahydro-1,6-naphthyridin-3-yl)cyclobutane-1-carboxamide] | 71 | –
17 | Cc1cc2nccc(=O)n2nc1N1CCc2ncc(NC(=O)C3(C)CCC3)cc2C1 [Compound 2-121, 1-methyl-N-(6-(8-methyl-4-oxo-4H-pyrimido[1,2-b]pyridazin-7-yl)-5,6,7,8-tetrahydro-1,6-naphthyridin-3-yl)cyclobutane-1-carboxamide] | 66 | –

The remaining molecules from weak to strong by EC50, led by results:

Row | Emax at 30 µM [%] | EC50 [nM] | SMILES
18 | 84 | 78 | Cc1cc2nccc(=O)n2nc1N1CCc2ncc(Nc3cccc(F)c3C)cc2C1 [Compound 2-94, 7-(3-((3-fluoro-2-methylphenyl)amino)-7,8-dihydro-1,6-naphthyridin-6(5H)-yl)-8-methyl-4H-pyrimido[1,2-b]pyridazin-4-one]
19 | 92 | 52 | Cc1cc2nccc(=O)n2nc1N1CCc2ncc(Nc3cc(Cl)cnc3F)cc2C1 [Compound 2-116, 7-(3-((5-chloro-2-fluoropyridin-3-yl)amino)-7,8-dihydro-1,6-naphthyridin-6(5H)-yl)-8-methyl-4H-pyrimido[1,2-b]pyridazin-4-one]
20 | 97 | 48 | Cc1cc2nccc(=O)n2nc1N1CCc2ncc(Nc3ccncc3Cl)cc2C1 [Compound 2-113, 7-(3-((3-chloropyridin-4-yl)amino)-7,8-dihydro-1,6-naphthyridin-6(5H)-yl)-8-methyl-4H-pyrimido[1,2-b]pyridazin-4-one]
21 | 85 | 46 | Cc1cc2nccc(=O)n2nc1N1CCc2ncc(Nc3cc(F)cc(C#N)c3)cc2C1 [Compound 2-104, 3-fluoro-5-((6-(8-methyl-4-oxo-4H-pyrimido[1,2-b]pyridazin-7-yl)-5,6,7,8-tetrahydro-1,6-naphthyridin-3-yl)amino)benzonitrile]
22 | 101 | 39 | Cc1cc2nccc(=O)n2nc1N1CCc2ncc(Nc3cc(F)nc(F)c3)cc2C1 [Compound 2-100, 7-(3-((2,6-difluoropyridin-4-yl)amino)-7,8-dihydro-1,6-naphthyridin-6(5H)-yl)-8-methyl-4H-pyrimido[1,2-b]pyridazin-4-one]
23 | 89 | 33 | Cc1cc2nccc(=O)n2nc1N1CCc2ncc(N3CCCc4cc(F)ccc43)cc2C1 [Compound 2-103, 7-(3-(6-fluoro-3,4-dihydroquinolin-1(2H)-yl)-7,8-dihydro-1,6-naphthyridin-6(5H)-yl)-8-methyl-4H-pyrimido[1,2-b]pyridazin-4-one]
24 | 84 | 32 | Cc1cc2nccc(=O)n2nc1N1CCc2ncc(Nc3cccc(F)c3F)cc2C1 [Compound 2-106, 7-(3-((2,3-difluorophenyl)amino)-7,8-dihydro-1,6-naphthyridin-6(5H)-yl)-8-methyl-4H-pyrimido[1,2-b]pyridazin-4-one]
25 | 90 | 19 | Cc1cc2nccc(=O)n2nc1N1CCc2ncc(Nc3ccccc3F)cc2C1 [Compound 2-98, 7-(3-((2-fluorophenyl)amino)-7,8-dihydro-1,6-naphthyridin-6(5H)-yl)-8-methyl-4H-pyrimido[1,2-b]pyridazin-4-one]
26 | 88 | 19 | Cc1cc2nccc(=O)n2nc1N1CCc2ncc(Nc3cc(F)cc(F)c3)cc2C1 [Compound 2-105, 7-(3-((3,5-difluorophenyl)amino)-7,8-dihydro-1,6-naphthyridin-6(5H)-yl)-8-methyl-4H-pyrimido[1,2-b]pyridazin-4-one]
27 | 98 | 11 | Cc1cc2nccc(=O)n2nc1N1CCc2ncc(Nc3ccncc3F)cc2C1 [Compound 2-111, 7-(3-((3-fluoropyridin-4-yl)amino)-7,8-dihydro-1,6-naphthyridin-6(5H)-yl)-8-methyl-4H-pyrimido[1,2-b]pyridazin-4-one]
